Data published in publication PMC8648984 (Angewandte Chemie (International ed. in English), 2021).
≈ marks a conversion by molar mass, not a printed value. Where “and” joins values, the source holds several entries; their conditions need not be identical. Equal entries are not always repeated. Where two headings read alike, the source gives them in different places.

Experiments:
[1] = Chemical stability in HD-MB03 cell culture media; type: physicochemical; conditions: for half-life: HD-MB03 cell culture media, pH 7.7; for t1/2 HD-MB03 cell media: cell media pH 7.7
[2] = Stability in phosphate-buffered saline; type: physicochemical
[3] = Metabolic stability in mouse liver microsomes; type: in vitro ADME
[4] = Metabolic stability in human liver microsomes; type: in vitro ADME
Caco-2 cell permeability = type: in vitro ADME, human; conditions: human, Caco-2
[5] = cited from earlier work
[6] = Chemical stability in MV4–11 cell culture media; conditions: for half-life: MV4-11 cell culture media, pH 7.4; for t1/2 MV4–11 cell media: pH 7.4, LCMS over 24 hours
Aqueous solubility = type: physicochemical; conditions: for solubility: aqueous medium (not further specified)
[7] = tested on: CaCo2 human colon adenocarcinoma cell line; test: Caco-2 cell permeability; type: in vitro ADME
MV4–11 cells = test: MV4–11 cell viability; type: cell-based, human; conditions: read-out: MV4–11 IC50; 3 days incubation, CellTiter-Glo
HD-MB03 cells = test: HD-MB03 cell viability; type: cell-based, human; conditions: read-out: HD-MB03 IC50
CRBN = CRBN (Homo sapiens, UniProt Q96SW2); test: CRBN fluorescence polarization assay; type: binding; conditions: for LE (ligand efficiency): from CRBN affinity; for IC50: read-out: CRBN IC50, fluorescence polarization, Cy5-conjugated lenalidomide probe
Plasma stability = type: in vitro ADME
BRD2 = BRD2 (Homo sapiens, UniProt P25440); test: BRD2 protein degradation in MV4–11 cells; type: cell-based; conditions: 100 nM, 4-hour incubation
IKZF1 and CK1α = test: Degradation of classical IMiD neosubstrates; type: cell-based
[8] = Chiral stability in cell media; type: physicochemical; conditions: 24 hours, 37°C
[9] = 3 days incubation, CellTiter-Glo

CRBN, sequence (Q96SW2 whole entry, species assumed): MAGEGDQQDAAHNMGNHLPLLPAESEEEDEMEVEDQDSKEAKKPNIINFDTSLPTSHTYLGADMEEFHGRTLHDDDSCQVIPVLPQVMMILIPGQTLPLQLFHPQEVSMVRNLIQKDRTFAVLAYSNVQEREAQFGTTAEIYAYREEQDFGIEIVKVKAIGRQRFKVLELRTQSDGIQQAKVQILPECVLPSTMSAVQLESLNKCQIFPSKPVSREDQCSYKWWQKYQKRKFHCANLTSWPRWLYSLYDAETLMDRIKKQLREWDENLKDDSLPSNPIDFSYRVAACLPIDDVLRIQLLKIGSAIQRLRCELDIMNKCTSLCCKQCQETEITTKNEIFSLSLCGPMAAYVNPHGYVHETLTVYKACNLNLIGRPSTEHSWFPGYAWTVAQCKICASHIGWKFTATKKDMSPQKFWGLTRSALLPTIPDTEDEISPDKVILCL
BRD2, sequence (P25440 whole entry): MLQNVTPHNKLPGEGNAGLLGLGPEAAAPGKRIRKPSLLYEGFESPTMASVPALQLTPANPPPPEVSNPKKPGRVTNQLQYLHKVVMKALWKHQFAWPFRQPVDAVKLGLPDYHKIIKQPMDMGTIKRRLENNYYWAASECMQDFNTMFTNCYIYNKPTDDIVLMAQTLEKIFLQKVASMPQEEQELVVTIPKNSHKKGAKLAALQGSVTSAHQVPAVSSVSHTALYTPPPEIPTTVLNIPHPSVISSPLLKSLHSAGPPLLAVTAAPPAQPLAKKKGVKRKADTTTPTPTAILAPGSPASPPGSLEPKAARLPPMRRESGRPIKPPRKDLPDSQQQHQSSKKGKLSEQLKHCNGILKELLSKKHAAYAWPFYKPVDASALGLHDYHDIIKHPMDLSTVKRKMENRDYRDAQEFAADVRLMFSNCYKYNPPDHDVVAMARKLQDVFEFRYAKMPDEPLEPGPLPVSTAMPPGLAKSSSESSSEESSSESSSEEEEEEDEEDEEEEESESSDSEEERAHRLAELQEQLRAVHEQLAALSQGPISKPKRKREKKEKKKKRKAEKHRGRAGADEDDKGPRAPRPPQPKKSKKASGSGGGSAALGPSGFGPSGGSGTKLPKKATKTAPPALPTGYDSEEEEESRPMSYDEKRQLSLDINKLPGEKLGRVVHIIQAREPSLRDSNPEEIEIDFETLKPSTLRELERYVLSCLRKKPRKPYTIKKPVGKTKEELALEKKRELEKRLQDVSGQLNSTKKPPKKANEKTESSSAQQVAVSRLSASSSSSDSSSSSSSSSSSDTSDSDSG

`O=C1CCC(N2C(=O)c3ccccc3C2=O)C(=O)N1` (centres unmarked) [1a, thalidomide] showed a half-life [1] of 1.8 ± 0.1 h, a half-life [2] of 5.4 ± 0.2 h and a half-life ([3]; liver microsomes) of 3.99 ± 0.01 h. For the same compound, the half-life ([4]; liver microsomes) was 4.55 ± 0.61 h, the Papp (Caco-2 cell permeability) was 34.9 ± 1.46 ×10⁻⁶ cm/s and the half-life to hydrolysis ([5]; pH 7) was 11 h. For the same compound, the half-life to hydrolysis ([5]; pH 7.4) was 5 h, the half-life to hydrolysis ([5]; pH 8) was 1.25 h and the half-life [6] was 3.3 ± 0.4 h. For the same compound, the percentage remaining ([6]; MV4–11 cell media, after 6 hours, 37°C) was 20% and the level remaining ([6]; MV4–11 cell media, at 24 hours, 37°C) was “below limits of detection”.
Compound `Nc1cccc2c1CN(C1CCC(=O)NC1=O)C2=O` (centres unmarked) [1b, lenalidomide] has a half-life [1] of 7.6 ± 0.6 h, a half-life [2] of 33.6 ± 2.5 h and a half-life ([3]; liver microsomes) greater than 24 h. The half-life ([4]; liver microsomes) was greater than 24 h, the solubility (Aqueous solubility) was 111 ± 6.2 µM (≈ 28.7 µg/mL) and the Papp (Caco-2 cell permeability) was 4 ± 1.02 ×10⁻⁶ cm/s. For the same compound, the half-life [6] was 11.7 h.
In the case of `Nc1cccc2c1C(=O)N(C1CCC(=O)NC1=O)C2=O` (centres unmarked) [1c, pomalidomide], the half-life [1] is reported as 5.4 ± 0.7 h, the half-life [2] is reported as 32.5 ± 1 h and the half-life ([3]; liver microsomes) is reported as 7.8 ± 0.69 h. For the same compound, the half-life ([4]; liver microsomes) was greater than 24 h, the solubility (Aqueous solubility) was 84.6 ± 2.3 µM (≈ 23.1 µg/mL) and the Papp (Caco-2 cell permeability) was 36 ± 1.39 ×10⁻⁶ cm/s. For the same compound, the half-life [6] was 12.2 ± 0.5 h.
In the case of `O=C1CCC(c2ccccc2)C(=O)N1` (centres unmarked) [2a, phenyl glutarimide], the “t1/2 HD-MB03 cell media” value [1] is reported as 20.8 ± 0.8 h, the “t1/2 PBS” value [2] is reported as greater than 48 h and the “t1/2 mLM” value ([3]; liver microsomes) is reported as greater than 24 h. For the same compound, the “t1/2 hLM” value ([4]; liver microsomes) was greater than 24 h, the “Sol. (aqueous solubility)” value (Aqueous solubility) was 76.2 ± 0.1 µM and the “CaCo2 Papp” value [7] was 21.55 ± 6.54 ×10⁻⁶ cm/s. For the same compound, the IC50 (MV4–11 cells) was greater than 7000 nM, the IC50 (HD-MB03 cells; [9]) was greater than 7000 nM and the “t1/2 MV4–11 cell media” value ([6]; 37°C) was greater than 24 h.
For `COc1ccc(C2CCC(=O)NC2=O)cc1` (centres unmarked) [2b], the “LE (ligand efficiency)” value (CRBN) was 0.48, the IC50 (CRBN) was 3150 nM and 3160 nM and the “t1/2 HD-MB03 cell media” value [1] was 19.7 ± 0.1 h. For the same compound, the “t1/2 PBS” value [2] was greater than 48 h, the “t1/2 hLM” value ([4]; microsomes) was greater than 24 h and the “Sol. (aqueous solubility)” value (Aqueous solubility) was 89.0 ± 1.8 µM. For the same compound, the “CaCo2 Papp” value [7] was 81.8 ± 25.14 ×10⁻⁶ cm/s and the “t1/2 MV4–11 cell media” value ([6]; 37°C) was greater than 24 h.
In the case of `Nc1ccc(C2CCC(=O)NC2=O)cc1` (centres unmarked) [2c], the “LE (ligand efficiency)” value (CRBN) is reported as 0.64, the IC50 (CRBN) is reported as 123 ± 66 nM and the “t1/2 HD-MB03 cell media” value [1] is reported as 16.4 ± 0.3 h. For the same compound, the “t1/2 PBS” value [2] was greater than 48 h, the “t1/2 mLM” value ([3]; microsomes) was 23.19 ± 1.63 h and the “t1/2 hLM” value ([4]; microsomes) was 15.66 ± 4.78 h. For the same compound, the “Sol. (aqueous solubility)” value (Aqueous solubility) was 148.5 ± 4.7 µM, the “CaCo2 Papp” value [7] was 15.72 ± 0.94 ×10⁻⁶ cm/s and the “t1/2 MV4–11 cell media” value ([6]; 37°C) was greater than 24 h.
For `Cc1sc2c(c1C)C(c1ccc(Cl)cc1)=N[C@@H](CC(=O)NCCCCNC(=O)COc1cccc3c1C(=O)N(C1CCC(=O)NC1=O)C3=O)c1nnc(C)n1-2` (some centres unmarked) [4a], the “t1/2 HD-MB03 cell media” value [1] was 2.1 ± 0.3 h, the “t1/2 PBS” value [2] was 12.3 ± 0.6 h and the “t1/2 mLM” value ([3]; microsomes) was 0.13 ± 0.01 h. The “Sol. (aqueous solubility)” value (Aqueous solubility) was 53.5 ± 0.3 µM, the “CaCo2 Papp” value [7] was 1.16 ± 0.47 ×10⁻⁶ cm/s and the IC50 (MV4–11 cells) was 6.1 ± 1.56 nM. For the same compound, the IC50 (HD-MB03 cells; [9]) was 1240 nM, the IC50 (HD-MB03 cells; 7 days incubation) was greater than 4000 nM and the “plasma stability t1/2” value (Plasma stability) was 3.27 ± 0.25 h. The “depletion of BRD2 protein” value (BRD2) was greater than 90%, the “degradation of IMiD neosubstrates IKZF1 and CK1α” value (IKZF1 and CK1α) was “Neither of the two PROTACs degraded classical IMiD neosubstrates” and the “t1/2 MV4–11 cell media” value ([6]; 37°C) was 4.2 ± 0.8 h.
`COc1ccc([C@H]2CCC(=O)NC2=O)cc1` [(R)-2b] showed an IC50 (CRBN) of 1410 nM, a chiral inversion ([8]; HD-MB03 cell media) of 21% and a chiral inversion ([8]; MV4–11 cell media) of 10%.
Compound `COc1ccc([C@@H]2CCC(=O)NC2=O)cc1` [(S)-2b] has an IC50 (CRBN) greater than 25000 nM, a chiral inversion ([8]; HD-MB03 cell media) of 24% and a chiral inversion ([8]; MV4–11 cell media) of 13%.
`Cc1sc2c(c1C)C(c1ccc(Cl)cc1)=N[C@@H](CC(=O)OC(C)(C)C)c1nnc(C)n1-2` [JQ1] showed an IC50 (MV4–11 cells) of 83 ± 10.3 nM and an IC50 (HD-MB03 cells; [9]) of 265 ± 62.6 nM.
